According to US20040005537A1, “Method of identifying toxic agents using differential gene expression” (priority 2000, published 2004):

What was measured:
rat heart tissue = experiment: GENECALLING differential gene expression analysis after dosing of serotonin modulating agents; assay type: in vivo, Sprague Dawley rats
In short: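 Rats dosed with serotonin modulating agents, controls given sterile water or canola oil; tissue taken 24 h after the last dose. Total RNA converted to cDNA and profiled by GENECALLING differential expression analysis; fragments changed more than ±1.5-fold were selected.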

[1] = grouping used to generate the distinguishing gene profiles; cited from earlier work

CNS(=O)(=O)Cc1ccc2[nH]cc(CCN(C)C)c2c1 [sumatriptan]
Effects on Transcription Level: Novel gene fragment, 445 bp, 85% SI to human skeletal muscle alpha 2 actinin [M86406] (rat heart tissue; CARDIOTOX 72): 5.7 fold | Effects on Transcription Level: Novel gene fragment, 246 bp, 89% SI to mouse ponsin-1 [AF078667] (rat heart tissue; CARDIOTOX 73): −3.2 fold | Effects on Transcription Level: Novel gene fragment, 126 bp, 77% SI to human DNA sequence from cosmid V311G7, between markers DXS366 and DXS87 on chromosome X [Z69304] (rat heart tissue; CARDIOTOX 74): +2.1 fold | Effects on Transcription Level: Novel gene fragment, 370 bp (rat heart tissue; CARDIOTOX 75): −2.7 fold | Effects on Transcription Level: Novel gene fragment, 337 bp, 78% SI to novel human protein AHNAK [M80899] (rat heart tissue; CARDIOTOX 76): −4.3 fold | Effects on Transcription Level: Novel gene fragment, 100 bp, 93% SI to human KIAA0750 protein [ABO18293] (rat heart tissue; CARDIOTOX 77): −9.3 fold | Effects on Transcription Level: Novel gene fragment, 44 bp (rat heart tissue; CARDIOTOX 78): −5.4 fold | Effects on Transcription Level: Novel gene fragment, 698 bp, 93% SI to mouse plenty-of-prolines-101 [AF062655] (rat heart tissue; CARDIOTOX 79): −2.3 fold | Effects on Transcription Level: Novel gene fragment, 660 bp, 84% SI to mouse membrane protein TMS-2 [AF181685] (rat heart tissue; CARDIOTOX 80): −3.8 fold | Effects on Transcription Level: Novel gene fragment, 115 bp (rat heart tissue; CARDIOTOX 81): −4.1 fold | Effects on Transcription Level: Novel gene fragment, 294 bp, 95% SI to mouse Ndr1 related protein Ndr2 [AB033921] (rat heart tissue; CARDIOTOX 82): −2.0 fold | Effects on Transcription Level: Novel gene fragment, 198 bp (rat heart tissue; CARDIOTOX 83): +2.5 fold | Effects on Transcription Level: Novel gene fragment, 730 bp, 86% SI to mouse E800 [Y10968] (rat heart tissue; CARDIOTOX 84): −2.8 fold | Effects on Transcription Level: Novel gene fragment, 294 bp, 98% SI to cysteine conjugate beta-lyase [S61960] (rat heart tissue; CARDIOTOX 85): −2.8 fold | Effects on Transcription Level: Aconitase (rat heart tissue; CARDIOTOX 86, GenBank A1243266): −1.9 fold | Effects on Transcription Level: Ribosomal protein L7 (rat heart tissue; CARDIOTOX 87, GenBank M17422): +2.5 fold | Effects on Transcription Level: Ribosomal protein L9 (rat heart tissue; CARDIOTOX 88, GenBank X51706): +10.1 fold | Effects on Transcription Level: Ribosomal protein L12 (rat heart tissue; CARDIOTOX 89, GenBank X53504): −1.5 fold | Effects on Transcription Level: 18S, 5.8S, and 28S ribosomal RNA's (rat heart tissue; CARDIOTOX 90, GenBank V01270): +5 fold | Effects on Transcription Level: Pyruvate dehydrogenase kinase 2 (PDK2) (rat heart tissue; CARDIOTOX 91, GenBank U10357): −6.10 fold | Effects on Transcription Level: D-Binding Protein (DBP) (rat heart tissue; CARDIOTOX 92, GenBank J03179): −1.4 fold | Effects on Transcription Level: Lipoprotein lipase (rat heart tissue; CARDIOTOX 93, GenBank L03294): −2.2 fold | Effects on Transcription Level: Non-neuronal enolase (rat heart tissue; CARDIOTOX 94, GenBank X02610): +3.5 fold | Effects on Transcription Level: Glycogen phosphorylase (muscle isozyme) (rat heart tissue; CARDIOTOX 95, GenBank L10669): −2.6 fold | Effects on Transcription Level: Cytochrome c oxidase subunit IV (rat heart tissue; CARDIOTOX 96, GenBank X14209): +10.0 fold | Effects on Transcription Level: Alpha-globin (rat heart tissue; CARDIOTOX 97, GenBank M17083): +3.8 fold | Effects on Transcription Level: Beta-globin (rat heart tissue; CARDIOTOX 98, GenBank X06701): +3.11 fold | Effects on Transcription Level: Myoglobin (rat heart tissue; CARDIOTOX 99, GenBank AF197916): +4.7 fold | Effects on Transcription Level: Titin (rat heart tissue; CARDIOTOX 100, GenBank L38717): −2.1 fold | Effects on Transcription Level: Skeletal muscle actin (rat heart tissue; CARDIOTOX 101, GenBank V01218): −18.3 fold | Effects on Transcription Level: Myosin light chain 2 (MLC2) (rat heart tissue; CARDIOTOX 102, GenBank M11851): +2.2 fold | Effects on Transcription Level: Alpha cardiac myosin heavy chain (rat heart tissue; CARDIOTOX 103, GenBank X15938): −3.5 fold | Effects on Transcription Level: Troponin I (rat heart tissue; CARDIOTOX 104, GenBank U77354): +1.8 fold | Effects on Transcription Level: Cardiac calsequestrin (rat heart tissue; CARDIOTOX 105, GenBank AF001334): −2.9 fold | Effects on Transcription Level: Sulfated glycoprotein 2 (rat heart tissue; CARDIOTOX 106, GenBank M16975): −1.6 fold | Effects on Transcription Level: Aquaporin 7 (rat heart tissue; CARDIOTOX 107, GenBank AB000507): +1.5 fold | Effects on Transcription Level: Carnitine/acylcarnitine carrier protein (rat heart tissue; CARDIOTOX 108, GenBank X97831): −2.5 fold | Effects on Transcription Level: Glu-Pro Dipeptide Repeat (rat heart tissue; CARDIOTOX 109, GenBank U40628): −6.2 fold | Effects on Transcription Level: Cystatin beta (rat heart tissue; CARDIOTOX 110, GenBank X54737): +2.5 fold | Effects on Transcription Level: Novel gene fragment, 593 bp, 90% SI to human calcineurin B-like protein [Z08983] (rat heart tissue; CARDIOTOX 111): +1.10 fold | Effects on Transcription Level: Novel gene fragment, 179 bp, 88% SI to human titin [X90568] (rat heart tissue; CARDIOTOX 112): −3.1 fold | Effects on Transcription Level: Novel gene fragment, 700 bp, 91% SI to mouse periplakin (PPL) [AF116523] (rat heart tissue; CARDIOTOX 113): +2.5 fold | Effects on Transcription Level: Long chain acyl-CoA dehydrogenase (LCAD) (rat heart tissue; CARDIOTOX 114, GenBank J05029): +1.7 fold | Effects on Transcription Level: Sulfated glycoprotein 1 (SGP-1) (rat heart tissue; CARDIOTOX 115, GenBank M19936): −1.8 fold | Effects on Transcription Level: Catalase (rat heart tissue; CARDIOTOX 116, GenBank M11670): +2.1 fold | Effects on Transcription Level: Alpha-fodrin (A2A) (Nonerythroid spectrin alpha subunit) (rat heart tissue; CARDIOTOX 117, GenBank AF084186): −1.7 fold | Effects on Transcription Level: Cardiac specific sodium channel alpha-subunit (rat heart tissue; CARDIOTOX 118, GenBank M27902): −2.0 fold | Effects on Transcription Level: Glu-Pro Dipeptide Repeat (rat heart tissue; CARDIOTOX 119, GenBank U40628): +4.2 fold | Effects on Transcription Level: Novel gene fragment, 200 bp, 64% SI to human KIAA0733 protein [AB018316] (rat heart tissue; CARDIOTOX 120): −1.6 fold | Effects on Transcription Level: RNA polymerase II transcription factor SIII (p18 subunit) (rat heart tissue; CARDIOTOX 121, GenBank L42855): +2.1 fold | Effects on Transcription Level: Protein-tyrosine phosphalase (LRP) (rat heart tissue; CARDIOTOX 122, GenBank L01702): +1.8 fold | Effects on Transcription Level: Skeletal muscle selenoprotein W (SelW) (rat heart tissue; CARDIOTOX 123, GenBank U25264): −1.6 fold | Effects on Transcription Level: Sarcoplasmic reticulum 2+-Ca-ATPase (rat heart tissue; CARDIOTOX 124, GenBank X15635): −2.1 fold | Effects on Transcription Level: Ribosomal protein S7 (rat heart tissue; CARDIOTOX 125, GenBank X53377): +1.7 fold | Effects on Transcription Level: Ribophorin I (rat heart tissue; CARDIOTOX 126, GenBank X05300): +2.0 fold | Effects on Transcription Level: Beta cardiac myosin heavy chain (rat heart tissue; CARDIOTOX 127, GenBank X15939): +2.2 fold | Effects on Transcription Level: ADP-ribosylation factor 1 (rat heart tissue; CARDIOTOX 128, GenBank L12380): +1.3 fold | Effects on Transcription Level: Laminin receptor (rat heart tissue; CARDIOTOX 129, GenBank U04942): +2.6 fold | Effects on Transcription Level: Novel gene fragment, 206 bp, 89% SI to human seryl-tRNA synthetase [X91257] (rat heart tissue; CARDIOTOX 130): +1.8 fold | Effects on Transcription Level: Annexin VI (rat heart tissue; CARDIOTOX 131, GenBank X86086): −09.0 fold | Effects on Transcription Level: Novel gene fragment, 325 bp, 90% SI to mouse N-RAP [U76618] (rat heart tissue; CARDIOTOX 132): +1.7 fold | Effects on Transcription Level: Novel gene fragment, 61 bp (CARDIOTOX 134) (rat heart tissue; LD10 dose for three days): −3 fold | Effects on Transcription Level: Novel gene fragment, 337 bp (CARDIOTOX 133) (rat heart tissue; LD10 dose for three days): −2.1 fold | Effects on Transcription Level: Novel gene fragment, 378 bp, 88% SI to human coatomer protein (COPA) [U24105] (CARDIOTOX 138) (rat heart tissue; LD10 dose for three days): −2.1 fold | Effects on Transcription Level: Long chain 3-ketoacyl-CoA thiolase (CARDIOTOX 136) (rat heart tissue; LD10 dose for three days, GenBank D16479): −1.5 fold | Effects on Transcription Level: TATA-binding protein interacting protein 120 (TIP120) (CARDIOTOX 135) (rat heart tissue; LD10 dose for three days, GenBank D87671): +2.4 fold | Effects on Transcription Level: Serine protease (CARDIOTOX 139) (rat heart tissue; LD10 dose for three days, GenBank D88250): +1.7 fold | Effects on Transcription Level: Thymosin beta-4 (CARDIOTOX 137) (rat heart tissue; LD10 dose for three days, GenBank M34043): +1.4 fold | Effects on Transcription Level: Annexin VI (no CARDIOTOX assignment given) (rat heart tissue; LD10 dose for three days, GenBank X86086): −5.1 fold | classification as cardiotoxic or noncardiotoxic serotonin modulating agent [1]: noncardiotoxic
